From PubChem BioAssay (NCI)
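Protocol summary: plate cells (96-well), add compound at 5 concentrations, incubate 48 h, interpolate endpoints linearly. The concentration for 50% growth inhibition is given as GI50. TGI is the concentration that stops growth completely.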

Key:
Assay in all cases: NCI anticancer screen, dose series, 48 h
A549 NSCLC = test system: A549 NSCLC
OVCAR-4 ovarian = test system: OVCAR-4 ovarian
LOX IMVI melanoma = test system: LOX IMVI melanoma
HS 578T breast = test system: HS 578T breast
MDA-MB-231 breast = test system: MDA-MB-231 breast
ACHN renal = test system: ACHN renal
SF-268 CNS = test system: SF-268 CNS
NCI/ADR-RES ovarian = test system: NCI/ADR-RES ovarian
HCC-2998 colon = test system: HCC-2998 colon
OVCAR-5 ovarian = test system: OVCAR-5 ovarian

SMILES | TGI (A549 NSCLC) | TGI (OVCAR-4 ovarian) | TGI (LOX IMVI melanoma) | TGI (HS 578T breast) | TGI (MDA-MB-231 breast) | TGI (ACHN renal) | TGI (SF-268 CNS) | TGI (NCI/ADR-RES ovarian) | TGI (HCC-2998 colon) | TGI (OVCAR-5 ovarian) | GI50 (OVCAR-4 ovarian) | GI50 (LOX IMVI melanoma) | GI50 (HS 578T breast) | GI50 (MDA-MB-231 breast) | GI50 (ACHN renal) | GI50 (NCI/ADR-RES ovarian) | GI50 (OVCAR-5 ovarian) | GI50 (SF-268 CNS) | GI50 (A549 NSCLC)
CN(C)CCCSc1nc2ccccc2[nH]1 | > 100 µM | > 100 µM | > 100 µM | > 100 µM | > 100 µM | > 100 µM | > 100 µM | > 100 µM | > 100 µM | > 100 µM | – | – | – | – | – | – | – | – | –
C1=NCCN2CCN(CCN=Cc3ccc(cc3)OCc3cccc(n3)COc3ccc1cc3)CC2 | > 50 µM | > 50 µM | – | > 50 µM | > 50 µM | > 50 µM | > 50 µM | > 50 µM | – | > 50 µM | – | – | – | – | – | – | – | – | –
OC1(c2cccs2)c2cccc(Cl)c2C(O)(c2cccs2)c2c(Cl)cccc21 (centres undefined) | > 100 µM | > 100 µM | > 100 µM | 33.4 µM | > 100 µM | > 100 µM | 75 µM | > 100 µM | > 100 µM | > 100 µM | – | – | – | – | – | – | – | – | –
CCOc1ccc(NC(=O)C(=O)CC(=O)c2sc(NNC(C)=O)nc2C)cc1 | > 100 µM | > 100 µM | > 100 µM | – | – | > 100 µM | > 100 µM | – | > 100 µM | > 100 µM | – | – | – | – | – | – | – | – | –
C[C@]12C=CC(=O)C=C1CC[C@@H]1[C@@H]2CC[C@]2(C)OC(=O)CC[C@@H]12 | 478 µM | > 500 µM | > 500 µM | > 500 µM | > 500 µM | > 500 µM | > 500 µM | > 500 µM | > 409 µM | > 500 µM | – | – | – | – | – | – | – | – | –
CCCCCCCCCCCCCCCCCCOc1ccccc1CC(=O)OCC[N+]1(C)CCCCC1 | – | 10.5 µM | 3.18 µM | 6.53 µM | 3.89 µM | 25.8 µM | – | 46.6 µM | – | 7.49 µM | 2.81 µM | 1.75 µM | 2.32 µM | 1.83 µM | 5.01 µM | 14.9 µM | 2.32 µM | – | –
Cc1ccc(S(=O)(=O)n2cc(-c3cc(C(F)(F)F)ccn3)c3cc(Br)ccc32)cc1 | 51.8 µM | 29.7 µM | 92.2 µM | 41.3 µM | 46.5 µM | 24.3 µM | 93.9 µM | > 100 µM | 62.6 µM | > 100 µM | – | – | – | – | – | – | – | – | –
O=C(O)c1cc([N+](=O)[O-])cc2c(=O)c3cnccc3[nH]c12 | – | > 100 µM | – | > 100 µM | > 100 µM | – | – | > 100 µM | > 100 µM | > 100 µM | – | – | – | – | – | – | – | – | –
CCOc1cc(NC(C)=O)ccc1C(=O)NN1C(=O)C(Cl)C1c1ccccc1 (centres undefined) | 33.3 µM | 32.7 µM | 3.55 µM | 83.1 µM | 26.7 µM | 29.7 µM | 43.8 µM | 88.5 µM | 32.3 µM | 31.4 µM | – | – | – | – | – | – | – | – | –
O=C([O-])C[n+]1ccccc1 | > 100 µM | > 100 µM | > 100 µM | > 100 µM | > 100 µM | > 100 µM | > 100 µM | > 100 µM | – | > 100 µM | – | – | – | – | – | – | – | – | –
O=C(Nc1ccc(Cl)cc1)c1cc2cc(N=Nc3ccccc3Cl)ccc2oc1=O | > 100 µM | > 100 µM | – | – | – | > 100 µM | > 100 µM | – | 41.2 µM | 91.3 µM | – | – | – | – | – | – | – | – | –
CN1CCOC(c2ccc(Cl)cc2)O1 (centres undefined) | > 100 µM | > 100 µM | – | – | > 100 µM | > 100 µM | > 100 µM | > 100 µM | > 100 µM | > 100 µM | – | – | – | – | – | – | – | – | –
CCOC(=O)c1cnc2oc3ccc(O)cc3c2c1C | > 100 µM | > 100 µM | > 100 µM | > 100 µM | > 100 µM | > 100 µM | > 100 µM | > 100 µM | > 100 µM | > 100 µM | – | – | – | – | – | – | – | 69.9 µM | –
NN(CC(=O)O)CC(=O)O | > 100 µM | > 100 µM | > 100 µM | > 100 µM | > 100 µM | > 100 µM | > 100 µM | > 100 µM | > 100 µM | > 100 µM | – | – | – | – | – | – | – | – | –
CN(CCCCCl)P(=O)(OCc1ccc([N+](=O)[O-])o1)OC[C@H]1O[C@@H](n2cc(F)c(=O)[nH]c2=O)C[C@@H]1O (some centres undefined) | > 26.4 µM | 33.5 µM | 12.9 µM | 8.68 µM | 34.2 µM | > 100 µM | 13.2 µM | 36.3 µM | – | > 100 µM | – | – | – | – | – | – | – | – | –
CCOC(=O)C1=C(C)OC2(O)C=CC(O)=C3C(=O)N(c4ccccc4)C(=O)C312 (centres undefined) | > 100 µM | > 100 µM | 52.9 µM | 61.7 µM | > 100 µM | > 100 µM | > 100 µM | > 100 µM | 73.9 µM | > 100 µM | – | – | – | – | – | – | – | – | –
COc1cc2c(c(O)c1OC)-c1c(cc(OC)c(OC)c1OC)CC(C)C(C)C2 (centres undefined) | > 100 µM | > 100 µM | > 100 µM | > 100 µM | > 100 µM | > 100 µM | > 100 µM | – | > 100 µM | > 100 µM | – | – | – | – | – | – | – | – | –
Cn1c2ccccc2n2c(N=O)c(-c3ccccc3)nc12 | 57.6 µM | > 100 µM | > 100 µM | > 100 µM | > 100 µM | > 100 µM | > 100 µM | > 100 µM | 28.3 µM | > 100 µM | – | – | – | – | – | – | – | – | –
C=C1c2ccccc2C(=O)c2c1c1c(C(=O)OC)c(O)ccc1n2Cc1ccccc1 | 3.6 µM | 1.77 µM | 0.628 µM | 1.73 µM | 1.54 µM | 1.74 µM | 0.518 µM | 0.723 µM | – | 2.44 µM | – | – | – | – | – | – | – | – | –
COCCOC(=O)c1c(C)n([O-])c2cc(Cl)c(Cl)cc2[n+]1=O | 35.7 µM | 30.8 µM | 40.8 µM | > 100 µM | 53.8 µM | 29.3 µM | 59.1 µM | 27.4 µM | – | 34.6 µM | – | – | – | – | – | – | – | – | –
CN1CCc2[nH]c3ccccc3c2C1 | > 100 µM | > 100 µM | > 100 µM | – | – | – | > 100 µM | > 100 µM | > 100 µM | > 100 µM | – | – | – | – | – | – | – | – | –
COc1ccc2[nH]cc(CCNC(=O)[C@H](Cc3ccccc3)NC(=O)[C@@H](NCC(F)(F)F)C(C)C)c2c1 | 70 µM | 32.3 µM | 37.6 µM | 39.6 µM | 35.9 µM | 67.7 µM | – | 41 µM | – | 34.8 µM | – | – | – | – | – | – | – | – | –
Nc1ncnc2nc[nH]c12 | > 250 µM | > 250 µM | > 250 µM | – | – | – | > 250 µM | 99.5 µM | > 191 µM | > 250 µM | – | – | – | – | – | – | – | 143 µM | 75.6 µM
